Test [1] concerns the target T1, GAL4 DBD-hMR LBD fusion protein (Homo sapiens, UniProt P08235).
T1 construct: expressed in transfected cells; host or cells: CV-1 cells (African green monkey kidney), transient co-transfection with pCMX-GAL4-based vector and Galp3TKLuc reporter
Description: Cell-based luciferase assay, agonist mode (CV-1 cells). As to conditions: 10 μM of compound. From the text:
GAL4 DBD-hMR LBD fusion protein expression vector: A pCMX-GAL4-based vector was used for the expression of a fusion protein composed of the amino acids 1-147 of the DNA binding domain of Saccharomyces cerevisiae GAL4 (GAL4 DBD) (SEQ ID NO: 16) and amino acid residues 729-984 of the ligand binding domain of human mineralocorticoid receptor (hMR LBD) (SEQ ID NO: 14). The expression vector contained an expression cassette of the nucleotide sequence for the GAL4 DBD (See SEQ ID NO: 19) ligated to nucleotides 2401 through 3168 of the human mineralocorticoid (hMR) receptor (SEQ ID NO: 13).
In vitro cell culture: CV-1 cells (African green monkey kidney cell line, ATCC accession number CCL-70) were maintained in culture in 90% DMEM medium supplemented by 9% FCS and 1% Penicillin-Streptomycin-L-Glutamine at 37° C. under 8.5% CO2.
These cells were transiently co-transfected with the GAL4 DBD-hMR LBD fusion protein expression vector and the Galp3TKLuc reporter gene vector using the FuGENE 6 Transfection Reagent (Roche) according to the manufacturer's instructions.
Agonist assay: As a positive control, aldosterone (Acros Organics, catalogue # 215360050) was used at a concentration of 100 nM. The negative control sample was 90% DMEM medium supplemented by 9% charcoal-treated FCS and 1% Penicillin-Streptomycin-L-Glutamine containing 0.2% DMSO plus 0.02% ethanol. Positive control, negative control, or 10 μM final concentration of test compound was added to the cells and incubated for 24 hours at 37° C. under 8.5% CO2 before the Luciferase substrate (Promega, catalogue number #E2620) was added. After an incubation period of 5 min at RT, luminescence signals were read on a microplate reader (Molecular Devices/LJL Biosystems). Negative and positive controls were defined as 0% and 100% agonism, respectively. The agonistic potency of test compounds is given in % and was normalized to the positive and negative controls.

Test [2] has as its target T2, ligand binding domain of the human mineralocorticoid receptor (hMR LBD) (Homo sapiens, UniProt P08235).
T2 construct: made in house; host or cells: Sf9 insect cells (baculovirus, pFastBac)
T2 sequence (P08235 729-984): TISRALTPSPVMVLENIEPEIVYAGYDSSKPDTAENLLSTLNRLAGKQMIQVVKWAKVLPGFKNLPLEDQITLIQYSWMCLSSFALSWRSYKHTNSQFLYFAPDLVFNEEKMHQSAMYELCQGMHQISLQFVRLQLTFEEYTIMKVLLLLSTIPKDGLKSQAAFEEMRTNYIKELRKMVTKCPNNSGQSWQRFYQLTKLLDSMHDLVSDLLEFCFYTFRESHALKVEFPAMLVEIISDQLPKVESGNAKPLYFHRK
The test is described as follows: Mineralocorticoid receptor (MR) in vitro competitive binding assay, [3H]aldosterone displacement. As to conditions: IR^TOTAL = sum of IR^AR/MR, IR^ER/MR, IR^GR/MR, IR^PR/MR. The method, then: Mineralocorticoid receptor (MR) binding assay: Spodoptera furgiperda (Sf9) insect cells (ATCC accession number CRL-1711) were maintained in culture in EX-CELL™ 420 serum free medium (JRH Biosciences, Inc.) at 27° C.
A recombinant baculovirus containing nucleotide sequences encoding the ligand binding domain of the human mineralocorticoid receptor (hMR) cloned into the pFastBac™ vector was generated using the Bac-to-Bac® Baculovirus Expression System Kit (Invitrogen) following the manufacturer's instructions. This recombinant baculovirus contains nucleotides 2401 through 3168 (SEQ ID NO: 13) of hMR, providing for expression of the ligand binding domain (LBD), amino acid residues 729-984 (SEQ ID NO: 14), of hMR (hMR LBD). Cultured Sf9 insect cells were transfected with this recombinant baculovirus following the manufacturer's instructions.
For the binding assay, a crude lysate of the hMR LBD-expressing insect cells was prepared. The crude lysate was diluted 12.5-fold with binding buffer (20 mM Tris-HCl pH 7.4, 1 mM EDTA, 1 mM dithiothreitol, 20 mM sodium tungstate, 50 mM KCl and 10% glycerol).
For the negative control sample, the diluted lysate was incubated with a 10 nM final concentration of the radioligand [1,2,6,7-^3H] aldosterone (Amersham Biosciences, catalogue # 434) for 3.5 h at 4° C. For test compounds and the positive control sample, the diluted lysate was incubated with various concentrations of test compound or with a 20 μM final concentration of spironolactone (Sigma, S-3378) as a reference compound for 45 min on ice, and was then incubated with a 10 nM final concentration of [1,2,6,7-^3H] aldosterone for 3.5 h at 4° C.
Using a CellHarvester (PerkinElmer, formerly Packard Biosciences), receptor/ligand complexes were retained on 96-well GF/B filters (PerkinElmer, formerly Packard Biosciences) while free radioligand passed through the filters. Scintillation counting of GF/B filter plates was performed using a TopCount NXT (PerkinElmer, formerly Packard Biosciences) to quantitate the amount of [1,2,6,7-^3H] aldosterone bound to the hMR LBD.
The IC50 of a test compound was determined from the concentration of test compound giving half-maximal displacement as obtained by nonlinear least-squares curve fitting to a one-site binding sigmoidal model using Prism 3.0 (Graph Pad Software, Inc., San Diego, US). The calculated IC50 values represent the average values calculated from the results of 1-3 experiments carried out in duplicate.
IC50 and inhibitory ratio calculations: To provide a measure of the potency of each test compound as an antagonist of MR, the IC50 of each test compound (IC50^Test) for ligand binding to MR and the IC50 of the known MR antagonists eplerenone (IC50^Ep) and spironolactone (IC50^Sp) for ligand binding to MR were used to calculate an IC50 ratio (RIC50) according to the following equations: RIC50^Ep/Test=IC50^Ep/IC50^Test and RIC50^Sp/Test=IC50^Sp/IC50^Test.
These individual inhibitory ratios were used to calculate a total inhibitory ratio (IR^TOTAL) according to the following equation: IR^TOTAL=IR^AR/MR+IR^ER/MR+IR^GR/MR+IR^PR/MR. B. Results and Discussion

T1 sequence (P08235 with tags, fused parts or gaps limits assumed): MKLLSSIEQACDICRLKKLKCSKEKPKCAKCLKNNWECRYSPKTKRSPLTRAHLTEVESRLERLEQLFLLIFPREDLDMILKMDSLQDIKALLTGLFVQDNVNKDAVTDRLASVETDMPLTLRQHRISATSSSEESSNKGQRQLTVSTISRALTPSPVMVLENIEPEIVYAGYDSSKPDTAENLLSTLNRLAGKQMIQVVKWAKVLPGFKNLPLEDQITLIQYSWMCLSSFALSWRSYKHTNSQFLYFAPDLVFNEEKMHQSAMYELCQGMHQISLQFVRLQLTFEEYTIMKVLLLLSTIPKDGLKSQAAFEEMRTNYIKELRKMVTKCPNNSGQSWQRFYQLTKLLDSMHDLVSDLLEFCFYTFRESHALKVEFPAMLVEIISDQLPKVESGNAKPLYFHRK

Regarding `C=CCC[C@@H]1CC2=CC(=O)CC[C@]2(C)C2=CC[C@@]3(C)C(CC[C@@]34CCC(=O)O4)C21` (stereo partly shown) [Example 8], in test [1], the “potency for activation of MR relative to aldosterone” value is reported as “at least three orders of magnitude less potent than aldosterone”. In the case of `CCC[C@@H]1CC2=CC(=O)CC[C@]2(C)C2=CC[C@@]3(C)C(CC[C@@]34CCC(=O)O4)C21` (stereo partly shown) [Example 9], in test [1], the “potency for activation of MR relative to aldosterone” value was “at least three orders of magnitude less potent than aldosterone”. With `CC(=O)S[C@@H]1CC2=CC(=O)CC[C@]2(C)C2=CC[C@@]3(C)C(CC[C@@]34CCC(=O)O4)C21` (stereo partly shown) [Example 11], in test [2], the “IR^TOTAL compared with the IR^TOTAL for eplerenone” value is given as “at least an order of magnitude greater than the IR^TOTAL for eplerenone” and the “IR^TOTAL compared with the IR^TOTAL for spironolactone” value is “greater than the IR^TOTAL for spironolactone”. Consider `CCC[C@@H]1CC2=CC(=O)CC[C@]2(C)[C@@]23O[C@@H]2C[C@@]2(C)C(CC[C@@]24CCC(=O)O4)C13` (stereo partly shown) [Example 10], for which the “potency for activation of MR relative to aldosterone” value in test [1] is “at least three orders of magnitude less potent than aldosterone”. `CC(=O)S[C@@H]1CC2=CC(=O)CC[C@]2(C)[C@@]23O[C@@H]2C[C@@]2(C)C(CC[C@@]24COC(=O)O4)C13` (stereo partly shown) [Example 46]: in test [2], the “IR^TOTAL compared with the IR^TOTAL for eplerenone” value was “at least an order of magnitude greater than the IR^TOTAL for eplerenone” and the “IR^TOTAL compared with the IR^TOTAL for spironolactone” value is on record as “greater than the IR^TOTAL for spironolactone”. `CCC[C@@H]1CC2=CC(=O)CC[C@]2(C)C2=CC[C@@]3(C)C(C21)[C@@H]1C[C@@H]1[C@@]31CCC(=O)O1` (stereo partly shown) [Example 70]: in test [2], the “IR^TOTAL compared with the IR^TOTAL for eplerenone” value was “at least an order of magnitude greater than the IR^TOTAL for eplerenone” and the “IR^TOTAL compared with the IR^TOTAL for spironolactone” value is “at least an order of magnitude greater than the IR^TOTAL for spironolactone”. Moreover, the “potency for activation of MR relative to aldosterone” value in test [1] is “at least three orders of magnitude less potent than aldosterone”. For `C[C@]12CCC(=O)C=C1C[C@@H](C#N)C1C2=CC[C@@]2(C)C1[C@@H]1C[C@@H]1[C@@]21COC(=O)O1` (stereo partly shown) [Example 76], in test [2], the “IR^TOTAL compared with the IR^TOTAL for eplerenone” value is listed as “at least an order of magnitude greater than the IR^TOTAL for eplerenone” and the “IR^TOTAL compared with the IR^TOTAL for spironolactone” value is listed as “at least an order of magnitude greater than the IR^TOTAL for spironolactone”.

With `CO/N=C/[C@@H]1CC2=CC(=O)CC[C@]2(C)[C@@]23O[C@@H]2C[C@@]2(C)C(CC[C@@]24CCC(=O)O4)C13` (stereo partly shown) [Example 52], the “IR^TOTAL compared with the IR^TOTAL for spironolactone” value in test [2] was “greater than the IR^TOTAL for spironolactone”. The “potency for activation of MR relative to aldosterone” value in test [1] is given as “at least three orders of magnitude less potent than aldosterone”.

Regarding `C[C@@H]1CC2=CC(=O)CC[C@]2(C)C2=CC[C@@]3(C)C(CC[C@@]34CCC(=O)O4)C21` (stereo partly shown) [Example 26], the “potency for activation of MR relative to aldosterone” value in test [1] was “at least three orders of magnitude less potent than aldosterone”. Still for that read-out and setting: as for `CCC[C@@H]1CC2=CC(=O)CC[C@]2(C)[C@@]23O[C@@H]2C[C@@]2(C)C(C13)[C@@H]1C[C@@H]1[C@@]21CCC(=O)O1` (stereo partly shown) [Example 71], the entry is “at least three orders of magnitude less potent than aldosterone”. In the case of `CO/N=C/[C@@H]1CC2=CC(=O)CC[C@]2(C)C2=CC[C@@]3(C)C(CC[C@@]34CCC(=O)O4)C21` (stereo partly shown) [Example 34], the “potency for activation of MR relative to aldosterone” value in test [1] is reported as “at least three orders of magnitude less potent than aldosterone”. Consider `CCCS[C@@H]1CC2=CC(=O)CC[C@]2(C)[C@@]23O[C@@H]2C[C@@]2(C)C(CC[C@@]24CCC(=O)O4)C13` (stereo partly shown) [Example 12], for which the “potency for activation of MR relative to aldosterone” value in test [1] was “at least three orders of magnitude less potent than aldosterone”.

Turning to `C[C@]12CCC(=O)C=C1C[C@@H](SCC(F)(F)F)C1C2=CC[C@@]2(C)C1CC[C@@]21CCC(=O)O1` (stereo partly shown) [Example 18], in test [1], the “potency for activation of MR relative to aldosterone” value is “at least three orders of magnitude less potent than aldosterone”. Consider `C[C@]12CCC(=O)C=C1CCC1C2=CC[C@@]2(C)C1[C@@H]1C[C@@H]1[C@@]21COC(=O)O1` (stereo partly shown) [Example 75], for which, in test [2], the “IR^TOTAL compared with the IR^TOTAL for eplerenone” value is reported as “at least an order of magnitude greater than the IR^TOTAL for eplerenone” and the “IR^TOTAL compared with the IR^TOTAL for spironolactone” value was “at least an order of magnitude greater than the IR^TOTAL for spironolactone”. As for `C[C@]12CCC(=O)C=C1CCC1C3CC[C@@]4(COC(=O)O4)[C@@]3(C)C[C@H]3O[C@@]132` (stereo partly shown) [Example 41], the “potency for activation of MR relative to aldosterone” value in test [1] is recorded as “at least three orders of magnitude less potent than aldosterone”.

(Values after patent publication US20070066580A1, “Novel aldosterone antagonists and uses thereof” (Recordati Ireland Limited, priority 2005, published 2007).)
